Source: patent publication US20200341000A1, “METHOD OF SCREENING COMPOUNDS FOR TREATING CNS DISORDERS” (SAGE THERAPEUTICS, INC., priority 2017, published 2020)
Entries after “also recorded” stand apart in the source; their conditions may differ. Read-outs that look alike come from different tables or passages of the source.

How the values were obtained:
[1] = test system: tonic current in dentate gyms granule cells (DGGCs); assay: Sustained (metabotropic) enhancement of tonic current in DGGCs after 15 min exposure and washout; type: cell-based, mice; details: for tonic current after exposure and washout: 1 μM, vehicle 43.9±5.7 pA; for change of tonic current after exposure to different concentrations: maximal effects at 1 μM; for tonic current versus vehicle with PKC inhibitor GFX: GFX 50 μM 15 min, then co-exposure with compound 15 min, washout
Experimental: (§1) Brain slices were prepared from 3- to 5-week-old male C57 mice. Mice were anesthetized with isoflurane, decapitated, and brains were rapidly removed and submerged in ice-cold cutting solution containing (mM): 126 NaCl, 2.5 KCl, 0.5 CaCl2, 2 MgCl2, 26 NaHCO3, 1.25 NaH2PO4, 10 glucose, 1.5 sodium pyruvate, and 3 kynurenic acid. Coronal 310 μm thick slices were cut with the vibratome VT1000S (Leica Microsystems, St Louis, Mo., USA). The slices were then transferred into incubation chamber filled with prewarmed (31-32° C.) oxygenated artificial cerebro-spinal fluid (ACSF) of the following composition (in mM): 126 NaCl, 2.5 KCl, 2 CaCl2, 2 MgCl2, 26 NaHCO3, 1.25 NaH2PO4, 10 glucose, 1.5 sodium pyruvate, 1 glutamine, 3 kynurenic acid and 0.005 GABA bubbled with 95% O2-5% CO2. Slices were allowed to recover at 32° C. for at least 1 hr before recording. Exogenous GABA was added in an attempt to standardize ambient GABA in the slice and provide an agonist source for newly inserted extrasynaptic GABAARs.
After recovery, a single slice was transferred to a submerged, dual perfusion recording chamber (Warner Instruments, Hamden, Conn., USA) on the stage of an upright microscope (Nikon FN-1) with a 40× water immersion objective equipped with DIC/IR optics. Slices were maintained at 32° C. and gravity-superfused with ACSF solution throughout experimentation and perfused at rate of 2 ml/min with oxygenated (O2/CO2 95/5%) ACSF.
Whole-cell currents were recorded from the dentate gyms granule cells (DGGCs) in 310-μm-thick coronal hippocampal slices. Patch pipettes (5-7MΩ) were pulled from borosilicate glass (World Precision Instruments) and filled with intracellular solution of the composition (in mM) as follows: 140 CsCl, 1 MgCl2, 0.1 EGTA, 10 HEPES, 2 Mg-ATP, 4 NaCl and 0.3 Na-GTP (pH=7.2 with CsOH). A 5 min period for stabilization after obtaining the whole-cell recording conformation (holding potential of −60 mV) was allowed before currents were recorded using an Axopatch 200B amplifier (Molecular Devices), low-pass filtered at 2 kHz, digitized at 20 kHz (Digidata 1440A; Molecular Devices), and stored for offline analysis.
For tonic current measurements, an all-points histogram was plotted for a 10 s period before and during 100 μM picrotoxin application, once the response reached a plateau level. Recordings with unstable baselines were discarded. Fitting the histogram with a Gaussian distribution gave the mean baseline current amplitude and the difference between the amplitudes before and during picrotoxin was considered to be the tonic current. The negative section of the all-points histogram which corresponds to the inward IPSCs was not fitted with a Gaussian distribution (Kretschmannova et al., 2013; Nusser and Mody, 2002). Series resistance and whole-cell capacitance were continually monitored and compensated throughout the course of the experiment. Recordings were eliminated from data analysis if series resistance increased by >20%. Spontaneous inhibitory post-synaptic currents (sIPSCs) were analyzed using the mini-analysis software (version 5.6.4; Synaptosoft, Decatur, Ga.). Minimum threshold detection was set to 3 times the value of baseline noise signal. To assess sIPSC kinetics, the recording trace was visually inspected and only events with a stable baseline, sharp rising phase, and single peak were used to negate artifacts due to event summation. Only recordings with a minimum of 200 events fitting these criteria were analyzed. sIPSCs amplitude, and frequency from each experimental condition was pooled and expressed as mean±SEM. To measure sIPSC decay, 100 consecutive events were averaged and the decay was fitted to a double exponential and the weighted decay constant (tw) was determined. Statistical analysis was performed by using Student t-test (paired and unpaired where appropriate), where p<0.05 is considered significant.

[2] = test system: tonic current in dentate gyms granule cells (DGGCs); assay: Acute (allosteric) modulation of tonic current in DGGCs of hippocampal slices; type: cell-based, mice; details: 100 nM, 10 min acute exposure, then 100 μM picrotoxin; mean±SEM
Experimental: as §1, with “GABAARs. […]” for “GABAARs.”
Whole-cell currents were recorded from the dentate gyms granule cells (DGGCs) in 310-μm-thick coronal hippocampal slices. […] A 5 min period for stabilization after obtaining the whole-cell recording conformation (holding potential of −60 mV) was allowed before currents were recorded using an Axopatch 200B amplifier (Molecular Devices), low-pass filtered at 2 kHz, digitized at 20 kHz (Digidata 1440A; Molecular Devices), and stored for offline analysis.
For tonic current measurements, an all-points histogram was plotted for a 10 s period before and during 100 μM picrotoxin application, once the response reached a plateau level. […] Series resistance and whole-cell capacitance were continually monitored and compensated throughout the course of the experiment. […] Spontaneous inhibitory post-synaptic currents (sIPSCs) were analyzed using the mini-analysis software (version 5.6.4; Synaptosoft, Decatur, Ga.). […] Only recordings with a minimum of 200 events fitting these criteria were analyzed. sIPSCs amplitude, and frequency from each experimental condition was pooled and expressed as mean±SEM. […]

α1β2γ2 GABAA receptors = target: T1, α1β2γ2 GABAA receptors (Homo sapiens, UniProt P14867+P18507+P47870); assay: Whole-cell patch clamp, potentiation of GABA EC20 currents at recombinant synaptic-type receptors (LTK cells); type: cell-based; details: n = 3
T1 construct: expressed in transfected cells
T1 sequence (P14867 28-456): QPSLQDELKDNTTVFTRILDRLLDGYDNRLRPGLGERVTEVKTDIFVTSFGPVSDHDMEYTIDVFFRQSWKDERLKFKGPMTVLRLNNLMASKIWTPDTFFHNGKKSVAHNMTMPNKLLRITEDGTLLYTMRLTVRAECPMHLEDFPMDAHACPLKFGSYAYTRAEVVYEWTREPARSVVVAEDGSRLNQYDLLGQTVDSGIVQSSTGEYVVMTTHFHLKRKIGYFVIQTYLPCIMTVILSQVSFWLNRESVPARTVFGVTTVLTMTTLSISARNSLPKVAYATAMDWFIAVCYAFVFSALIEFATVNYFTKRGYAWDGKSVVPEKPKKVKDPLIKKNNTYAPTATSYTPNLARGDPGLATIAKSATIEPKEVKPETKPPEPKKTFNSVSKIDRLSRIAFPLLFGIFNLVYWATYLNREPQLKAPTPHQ
T1 sequence (P47870 25-512 limits assumed): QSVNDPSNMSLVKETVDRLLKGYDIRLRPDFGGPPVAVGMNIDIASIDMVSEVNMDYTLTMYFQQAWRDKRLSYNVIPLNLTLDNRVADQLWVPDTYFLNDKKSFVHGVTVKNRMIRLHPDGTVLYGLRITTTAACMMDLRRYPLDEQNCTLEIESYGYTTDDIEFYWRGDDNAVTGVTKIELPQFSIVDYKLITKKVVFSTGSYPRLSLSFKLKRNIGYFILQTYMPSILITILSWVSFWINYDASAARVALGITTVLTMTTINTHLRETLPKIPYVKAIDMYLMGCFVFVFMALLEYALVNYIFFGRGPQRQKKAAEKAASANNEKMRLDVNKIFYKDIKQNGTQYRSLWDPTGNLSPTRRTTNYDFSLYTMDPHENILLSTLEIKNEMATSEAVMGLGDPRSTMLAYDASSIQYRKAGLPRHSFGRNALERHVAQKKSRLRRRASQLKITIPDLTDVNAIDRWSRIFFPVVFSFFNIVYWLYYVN
T1 sequence (P18507 40-475): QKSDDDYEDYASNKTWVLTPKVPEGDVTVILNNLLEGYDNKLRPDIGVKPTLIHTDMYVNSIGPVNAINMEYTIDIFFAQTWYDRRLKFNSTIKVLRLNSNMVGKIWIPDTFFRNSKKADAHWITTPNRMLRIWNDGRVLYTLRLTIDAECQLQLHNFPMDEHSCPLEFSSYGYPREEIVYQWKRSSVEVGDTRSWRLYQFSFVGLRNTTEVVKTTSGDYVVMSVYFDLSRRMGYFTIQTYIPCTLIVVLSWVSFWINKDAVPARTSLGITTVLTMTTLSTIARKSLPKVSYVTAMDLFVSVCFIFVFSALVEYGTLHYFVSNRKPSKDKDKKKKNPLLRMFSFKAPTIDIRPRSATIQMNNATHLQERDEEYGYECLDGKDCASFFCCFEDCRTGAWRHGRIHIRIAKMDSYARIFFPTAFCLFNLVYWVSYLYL
Experimental: Cellular electrophysiology was used to measure the pharmacological properties of ALLO, ganaxolone and SGE-516 in heterologous cell systems. Compounds were tested for their ability to affect GABA mediated currents at a submaximal agonist dose (GABA EC20=2 μM).
LTK cells were stably transfected with the α1β2γ2 subunits of the GABA receptor and CHO cells are transiently transfected with the α4β3γ subunits via the Lipofecatamine method. Cells were passaged at a confluence of about 50-80% and then seeded onto 35 mm sterile culture dishes containing 2 ml culture complete medium without antibiotics or antimycotics. Cells were cultivated at a density that enabled the recording of single cells without visible connections to other cells.
Whole-cell currents were measured with HEKA EPC-10 amplifiers using PatchMaster software. Bath solution for all experiments contained (in mM): NaCl 137, KCl 4, CaCl2 1.8, MgCl2 1, HEPES 10, D-Glucose 10, pH 7.4 with NaOH. Intracellular (pipette) solution contained (in mM): KCl 130, MgCl2 1, Mg-ATP 5, HEPES 10, EGTA 5, pH 7.2 with KOH. During experiments, cells and solutions were maintained at room temperature (19° C.-30° C.). For manual patchclamp recordings, cell culture dishes were placed on the dish holder of the microscope and continuously perfused (1 ml/min) with bath solution. After formation of a Gigaohm seal between the patch electrode and the cell (pipette resistance range: 2.5 MΩ-6.0MΩ; seal resistance range: >1 GΩ) the cell membrane across the pipette tip was ruptured to assure electrical access to the cell interior (whole-cell patch configuration).
Cells were voltage-clamped at a holding potential of −80 mV. GABAA receptors were activated by 2 μM GABA and compounds were sequentially applied at increasing concentrations for 30 s prior to a 2 s application of GABA. GABA and compounds were applied to cells via the Dynaflow perfusion system (Cellectricon, Sweden). Test compounds were dissolved in DMSO to form 10 mM stock solution and serially diluted to 0.01, 0.1, 1, and 10 μM in bath solution. […] All concentrations of test compound were tested on each cell. The relative percentage potentiation was defined as the peak amplitude in response to GABA EC20 in the presence of test compound divided by the peak amplitude in response to GABA EC20 alone, multiplied by 100.
ALLO and ganaxolone are known PAMs of both synaptic and extrasynaptic GABAAR-mediated currents. […] The α1β2γ2 or α4β3δ subunit combinations were chosen as representatives of typical synaptic and extrasynaptic GABAA receptors respectively.

[3] = test system: GABA receptor trafficking; assay: GABA receptor trafficking measured by GABAergic current density (FIG. 14); type: cell-based; details: measured by the GABAergic current density
Text: As shown in above examples, not all neurosteroids can modulate GABA receptor trafficking.

[4] = 15 min incubation, 30-60 min wash
[5] = relative percentage potentiation of GABA EC20 peak current

SMILES	increase in tonic current in the absence or presence of strychnine ([1]; 100 nM ALLO 15 min, strychnine 100 nM)	change of tonic current versus vehicle ([1]; 100 nM, 15 min incubation, 30-60 min wash)	tonic current after exposure and washout [1, 4] [pA]	change of tonic current after exposure to different concentrations [1, 4]	tonic current versus vehicle with PKC inhibitor GFX [1]	tonic current during acute exposure [2] [pA]	EC50 (α1β2γ2 GABAA receptors; EC50, potentiation of GABA current, α1β2γ2, GABA EC20 (2 μM)) [µM]	Emax (α1β2γ2 GABAA receptors; LTK, relative percentage potentiation of GABA EC20 peak current, read-out: Emax ± S.E.M., α1β2γ2) [%]	Emax ± S.E.M., α1β2γ2 (α1β2γ2 GABAA receptors; [5]) [%]	modulation of GABA receptor trafficking [3]	tonic current in DGGCs after incubation and extensive washout ([1]; 100 nM, WT slices)	pEC50 ± S.E.M., α1β2γ2 (α1β2γ2 GABAA receptors; GABA EC20 (2 μM))	EC50 (α1β2γ2 GABAA receptors; GABA EC20 (2 μM), read-out: EC50, potentiation of GABA current, α1β2γ2) [µM]
CC(=O)[C@H]1CC[C@H]2[C@@H]3CC[C@H]4C[C@H](O)CC[C@]4(C)[C@H]3CC[C@]12C [ALLO, Allopregnanolone]	no difference	significant increase	95.8±10.8	concentration-dependent increase; also recorded: significantly enhanced	no significant difference; also recorded: No change	58.3±13.0	0.115	229	229 ± 19	modulated GABA receptor trafficking			
C[C@@]1(O)CC[C@H]2[C@H](CC[C@@H]3[C@@H]2CC[C@]2(C)[C@@H](C(=O)Cn4nccn4)CC[C@@H]32)C1 [SGE-516]			123.0±22.2	concentration-dependent increase; also recorded: significantly enhanced	no significant difference; also recorded: No change	49.2±8.9			219	modulated GABA receptor trafficking	significant increased	7.2 ± 0.3	0.061
